Consider 20 compounds from patent US10287293B2, “Bicyclic heterocyclic compounds as PDE2 inhibitors” (Merck Sharp & Dohme Corp., priority 2015, dated 2019).

human PDE2A1, sequence (O00408 other isoform, or with tags, fused parts or gaps): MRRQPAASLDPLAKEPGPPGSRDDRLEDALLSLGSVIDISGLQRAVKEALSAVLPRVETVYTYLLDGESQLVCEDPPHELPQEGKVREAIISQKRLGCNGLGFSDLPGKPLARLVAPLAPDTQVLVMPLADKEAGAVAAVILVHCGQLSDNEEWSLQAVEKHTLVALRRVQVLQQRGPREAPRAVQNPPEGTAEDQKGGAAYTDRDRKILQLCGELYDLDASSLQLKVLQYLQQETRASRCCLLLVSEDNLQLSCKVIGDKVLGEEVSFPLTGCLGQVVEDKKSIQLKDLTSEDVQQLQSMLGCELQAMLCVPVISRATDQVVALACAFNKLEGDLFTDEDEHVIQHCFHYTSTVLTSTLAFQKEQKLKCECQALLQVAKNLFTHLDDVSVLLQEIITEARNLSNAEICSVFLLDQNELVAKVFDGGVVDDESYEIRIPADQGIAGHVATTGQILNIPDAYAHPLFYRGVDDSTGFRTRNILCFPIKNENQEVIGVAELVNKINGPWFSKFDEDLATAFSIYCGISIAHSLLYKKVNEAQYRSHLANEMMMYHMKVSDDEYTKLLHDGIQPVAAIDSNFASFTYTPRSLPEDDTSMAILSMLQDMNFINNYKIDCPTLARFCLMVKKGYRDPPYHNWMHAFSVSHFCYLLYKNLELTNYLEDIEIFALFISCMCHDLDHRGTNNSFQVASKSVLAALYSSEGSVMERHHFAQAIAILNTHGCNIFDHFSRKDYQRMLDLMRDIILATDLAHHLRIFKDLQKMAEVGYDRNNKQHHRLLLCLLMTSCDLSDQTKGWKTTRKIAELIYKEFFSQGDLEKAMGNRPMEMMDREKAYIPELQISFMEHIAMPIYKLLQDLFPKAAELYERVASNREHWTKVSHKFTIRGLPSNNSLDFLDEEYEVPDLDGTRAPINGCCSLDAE

The target in one data set is Rhesus PDE2A3 (Macaca mulatta, UniProt B3VTJ2). The data set is described as follows: PDE2 fluorescence polarization (IMAP FP) inhibition assay, rhesus enzyme. It is filed as biochemical, rhesus macaque. As to conditions: FAM-cAMP 50 nM substrate, cGMP 1 uM activator.
Rhesus PDE2A3, sequence (B3VTJ2 1-941): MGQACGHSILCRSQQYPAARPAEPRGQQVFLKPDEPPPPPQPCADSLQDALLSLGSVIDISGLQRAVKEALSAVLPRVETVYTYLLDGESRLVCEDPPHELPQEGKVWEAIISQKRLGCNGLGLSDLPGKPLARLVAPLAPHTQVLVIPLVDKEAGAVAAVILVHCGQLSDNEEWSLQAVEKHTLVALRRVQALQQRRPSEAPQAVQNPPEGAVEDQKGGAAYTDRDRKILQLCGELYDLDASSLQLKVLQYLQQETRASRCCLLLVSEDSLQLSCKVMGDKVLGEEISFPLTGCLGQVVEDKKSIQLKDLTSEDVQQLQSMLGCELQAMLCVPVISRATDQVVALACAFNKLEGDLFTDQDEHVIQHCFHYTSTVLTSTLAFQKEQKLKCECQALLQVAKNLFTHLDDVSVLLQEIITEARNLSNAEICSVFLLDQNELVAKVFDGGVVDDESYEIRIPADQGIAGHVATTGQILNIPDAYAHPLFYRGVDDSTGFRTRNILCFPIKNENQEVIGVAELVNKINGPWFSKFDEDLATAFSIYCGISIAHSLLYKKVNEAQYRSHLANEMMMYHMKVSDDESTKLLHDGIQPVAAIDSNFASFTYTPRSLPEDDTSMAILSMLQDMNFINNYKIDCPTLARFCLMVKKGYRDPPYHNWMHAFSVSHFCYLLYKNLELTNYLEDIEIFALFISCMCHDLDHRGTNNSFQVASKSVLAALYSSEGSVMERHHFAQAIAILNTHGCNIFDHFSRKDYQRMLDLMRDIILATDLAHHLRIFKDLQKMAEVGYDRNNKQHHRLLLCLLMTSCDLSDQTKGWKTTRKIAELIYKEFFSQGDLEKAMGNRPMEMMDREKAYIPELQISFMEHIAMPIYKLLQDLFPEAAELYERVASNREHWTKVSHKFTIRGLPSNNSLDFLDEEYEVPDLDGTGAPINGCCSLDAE
Broadly, the Ki is the equilibrium dissociation constant of an inhibitor or competing ligand from its target. A lower Ki goes with higher affinity. For the compound `Cc1nn2c([C@@H](C)c3ccc(C(F)(F)F)cc3)nc(C)c2c(=O)[nH]1` (single isomer, unassigned) [Example 26], the Ki is 0.779 µM.

In the case of `Cc1nn2c([C@@H](C)c3ccc(C(F)(F)F)cc3)nc(C)c2c(=O)[nH]1` (single isomer, unassigned) [Example 27], the Ki was determined as 0.021 µM.

Another data set deals with other PDE isoforms.
Experiment: not given
As to conditions: literature report; cited from earlier work.
For the compound `COc1ccc(Cc2nn3c([C@@H](CCCc4ccccc4)[C@@H](C)O)nc(C)c3c(=O)[nH]2)cc1OC` [Bay 60-7550], the “potency at other PDE isoforms” value is on record as “significant potency”.

A further data set has as its target human PDE2A1 (Homo sapiens (Human), UniProt O00408). The data set is described as follows: PDE selectivity panel IMAP FP assay, human PDE2. The class given is biochemical. As to conditions: FAM cAMP 50 nM containing 1000 nM cGMP. Here is the method:
Selectivity for PDE2, as compared to other PDE families, was assessed using the IMAP® technology. Human PDE10A2 enzyme was prepared from cytosolic fractions of transiently transfected HEK cells. […] The enzyme and the substrate were then added to the assay plates in two consecutive additions of 10 μL and then shaken to mix. The reaction was allowed to proceed at room temperature for 60 minutes. […] The enzymatic reaction was stopped by addition of 60 μL of the binding solution to each well of the assay plate. The plates were sealed and shaken for 10 seconds. The plates were incubated at room temperature for one hour, then the parallel and perpendicular fluorescence was measured using a Tecan Genios Pro plate reader (Tecan, Switzerland). […] The intrinsic PDE2 inhibitory activity of a compound which may be used in accordance with the present invention may be determined by these assays. […] Additional data is provided in the following Examples.
With `Cc1nc2c(C(C)c3cccc(C(F)(F)F)c3F)nn(CCO)c2c(=O)[nH]1` (single isomer, unassigned) [Example 9, (R)- or (S)-3-(1-(2-Fluoro-3-(trifluoromethyl)phenyl)ethyl)-1-(2-hydroxyethyl)-5-methyl-1,6-dihydro-7H-pyrazolo[4,3-d]pyrimidin-7-one], the Ki was determined as 2.8 µM.

Consider `Cc1nc2c(C(C)c3cccc(C(F)(F)F)c3F)nn(CCO)c2c(=O)[nH]1` (single isomer, unassigned) [Example 10, (S)- or (R)-3-(1-(2-Fluoro-3-(trifluoromethyl)phenyl)ethyl)-1-(2-hydroxyethyl)-5-methyl-1,6-dihydro-7H-pyrazolo[4,3-d]pyrimidin-7-one], for which affinity was put at a Ki of 0.206 µM.

As to `Cc1nc2c([C@@H](C)c3ccc(C(F)(F)F)cc3)nn([C@H](C)CO)c2c(=O)[nH]1` (single isomer, unassigned) [Example 21, 1-((R)-1-Hydroxypropan-2-yl)-5-methyl-3-((S)-1-(4-(trifluoromethyl)phenyl)ethyl)-1,6-dihydro-7H-pyrazolo[4,3-d]pyrimidin-7-one or 1-((R)-1-Hydroxypropan-2-yl)-5-methyl-3-((R)-1-(4-(trifluoromethyl)phenyl)ethyl)-1,6-dihydro-7H-pyrazolo[4,3-d]pyrimidin-7-one], the affinity, expressed as Ki, was 0.239 µM.

Turning to `Cc1nc2c([C@@H](C)c3ccc(C(F)(F)F)cc3)nn([C@H](C)CO)c2c(=O)[nH]1` (single isomer, unassigned) [Example 22, 1-((R)-1-Hydroxypropan-2-yl)-5-methyl-3-((S)-1-(4-(trifluoromethyl)phenyl)ethyl)-1,6-dihydro-7H-pyrazolo[4,3-d]pyrimidin-7-one or 1-((R)-1-Hydroxypropan-2-yl)-5-methyl-3-((R)-1-(4-(trifluoromethyl)phenyl)ethyl)-1,6-dihydro-7H-pyrazolo[4,3-d]pyrimidin-7-one], the Ki was determined as 0.0156 µM. This Ki lies about 15-fold lower than the previous one.

With `Cc1nc2c([C@@H](C)c3ccc(C(F)(F)F)cc3)nn([C@@H](C)CO)c2c(=O)[nH]1` (single isomer, unassigned) [Example 23, 1-((S)-1-Hydroxypropan-2-yl)-5-methyl-3-((S)-1-(4-(trifluoromethyl)phenyl)ethyl)-1,6-dihydro-7H-pyrazolo[4,3-d]pyrimidin-7-one or 1-((S)-1-Hydroxypropan-2-yl)-5-methyl-3-((R)-1-(4-(trifluoromethyl)phenyl)ethyl)-1,6-dihydro-7H-pyrazolo[4,3-d]pyrimidin-7-one], the Ki came to 0.142 µM.

In turn, `Cc1nn2c([C@@H](C)c3ccc(C(F)(F)F)cc3)nc(C)c2c(=O)[nH]1` (single isomer, unassigned) [Example 27] came in with a Ki of 0.0172 µM.

Consider `Cc1nn2c([C@@H](C)c3ccc(C(F)(F)F)cc3)nc(CO)c2c(=O)[nH]1` (single isomer, unassigned) [Example 28], for which the affinity corresponds to a Ki of 0.298 µM.

`Cc1nn2c([C@@H](C)c3ccc(C(F)(F)F)cc3)nc(CO)c2c(=O)[nH]1` (single isomer, unassigned) [Example 29] showed a Ki of 0.0012 µM.

Compound `Cc1nn2c(C(C)c3ccc(C(F)(F)F)cc3F)nc(CO)c2c(=O)[nH]1` (single isomer, unassigned) [Example 30, (R)- or (S)-7-(1-(2-fluoro-4-(trifluoromethyl)phenyl)ethyl)-5-(hydroxymethyl)-2-methylimidazo[5,1-f][1,2,4]triazin-4(3H)-one] yielded a Ki of 0.2 µM.

`Cc1nn2c(C(C)c3ccc(C(F)(F)F)cc3F)nc(CO)c2c(=O)[nH]1` (single isomer, unassigned) [Example 31, (S)- or (R)-7-(1-(2-fluoro-4-(trifluoromethyl)phenyl)ethyl)-5-(hydroxymethyl)-2-methylimidazo[5,1-f][1,2,4]triazin-4(3H)-one] registered a Ki of 0.0008 µM.

`Cc1nn2c(C(C)c3ccc(OC(F)(F)F)cc3)nc(CO)c2c(=O)[nH]1` (single isomer, unassigned) [Example 32, (R)- or (S)-5-(hydroxymethyl)-2-methyl-7-(1-(4-(trifluoromethoxy)phenyl)ethyl)imidazo[5,1-f][1,2,4]triazin-4(3H)-one] gave a Ki of 0.0625 µM. This Ki lies about 78-fold higher than the previous one.

In the case of `Cc1nn2c(C(C)c3ccc(OC(F)(F)F)cc3)nc(CO)c2c(=O)[nH]1` (single isomer, unassigned) [Example 33, (S)- or (R)-5-(hydroxymethyl)-2-methyl-7-(1-(4-(trifluoromethoxy)phenyl)ethyl)imidazo[5,1-f][1,2,4]triazin-4(3H)-one], the inhibition constant (Ki) was 0.0012 µM.

`Cc1nn2c(C(C)c3ccc(C(F)(F)F)c(F)c3)nc(CO)c2c(=O)[nH]1` (single isomer, unassigned) [Example 34, (R)- or (S)-7-(1-(3-fluoro-4-(trifluoromethyl)phenyl)ethyl)-5-(hydroxymethyl)-2-methylimidazo[5,1-f][1,2,4]triazin-4(3H)-one] registered a Ki of 0.216 µM.

Regarding `Cc1nn2c(C(C)c3ccc(C(F)(F)F)c(F)c3)nc(CO)c2c(=O)[nH]1` (single isomer, unassigned) [Example 35, (S)- or (R)-7-(1-(3-fluoro-4-(trifluoromethyl)phenyl)ethyl)-5-(hydroxymethyl)-2-methylimidazo[5,1-f][1,2,4]triazin-4(3H)-one], affinity was put at a Ki of 0.001 µM.

The compound `Cc1nn2c(C(C)c3ccc(C4(C)CC4)cc3)nc(CO)c2c(=O)[nH]1` (single isomer, unassigned) [Example 36, (R)- or (S)-5-(hydroxymethyl)-2-methyl-7-(1-(4-(1-methylcyclopropyl)phenyl)ethyl)imidazo[5,1-f][1,2,4]triazin-4(3H)-one] gave a Ki of 0.109 µM.

Consider `Cc1nn2c(C(C)c3ccc(C4(C)CC4)cc3)nc(CO)c2c(=O)[nH]1` (single isomer, unassigned) [Example 37, (S)- or (R)-5-(hydroxymethyl)-2-methyl-7-(1-(4-(1-methylcyclopropyl)phenyl)ethyl)imidazo[5,1-f][1,2,4]triazin-4(3H)-one], for which the Ki stood at 0.0004 µM.

Regarding `Cc1nn2c([C@@H](C)c3ccc(C(F)(F)F)cc3)nc(CCO)c2c(=O)[nH]1` (single isomer, unassigned) [Example 39], the affinity, expressed as Ki, was 0.0903 µM.

As for `Cc1nn2c(C(C)c3ccc(C(F)(F)F)cc3)nc(CC#N)c2c(=O)[nH]1` (stereo not shown) [Example 38, 2-(2-methyl-4-oxo-7-(1-(4-(trifluoromethyl)phenyl)ethyl)-3,4-dihydroimidazo-[5,1-f][1,2,4]triazin-5-yl)acetonitrile], affinity was put at a Ki of 0.0061 µM.

Test system in another data set: not given
Experiment: not given
As to conditions: literature report; cited from earlier work.
Turning to `COc1ccc(Cc2nn3c([C@@H](CCCc4ccccc4)[C@@H](C)O)nc(C)c3c(=O)[nH]2)cc1OC` [Bay 60-7550], the brain penetration result is given as “limited”.
